Experimental data reported in patent US20250213474A1, “COMPOSITIONS AND METHODS FOR METAL CONTAINING FORMULATIONS CAPABLE OF MODULATING IMMUNE RESPONSE” (The Regents of the University of Michigan, priority 2021, published 2025).

Assays:
[1] = test system: THP 1 dual-KI-hSTING^WT(R232) reporter cells; assay: Cellular viability of chelator-treated THP 1 dual-KI-hSTING WT(R232) reporter cells; type: cell-based, human
Text: (§1) FIGS. 18A-18F: Chelating metal ions to inhibit cGAS-STING-Type I IFN pathway. (FIG. 18A) Molecular structure of representative chelators that could inhibit cGAS-STING-Type I IFN pathway. (FIGS. 18B-18C) Dose-inhibition curves of the IFN-I response (FIG. 18B) and NF-kB inflammation response (FIG. 18C) by the indicated compounds in DNA/lipofectamine 2000 (ThermoFisher, 11668027) treated THP 1 dual-KI-hSTING^WT(R232) reporter cells (Invivogen, thpd-r232). (FIG. 18D) Cellular viability of FIGS. 18B-18C. (FIG. 18E) Dose-inhibition curves of the IFN-I response by the indicated compounds in DNA/lipofectamine 2000 (ThermoFisher, 11668027) treated THP 1-ISG hSTING^HAQ reporter cells (Invivogen, thp-isg). […]
(§2) Given the interesting function of metal ions on modulating innate immune response in our finding, we further evaluated whether chelating metal ions could inhibit the according innate immune pathways, which may be used to treat autoimmune diseases, such as Systemic lupus erythematosus, Aicardi-Goutieres syndrome, Acute pancreatitis Age-dependent macular degeneration, Alcoholic liver disease, Liver fibrosis, Metastasis, Myocardial infarction, Nonalcoholic steatohepatitis (NASH), Parkinson's disease, Polyarthritis/fetal and neonatal anemia, Sepsis, inflammatory bowel disease, multiple sclerosis, etc. […] By a ISRE induced luminescence, we could read the degree of inhibition. […]

[2] = test system: cGAS-STING-Type I IFN pathway; assay: Inhibition of DNA/lipofectamine-induced IFN-I response in THP 1 dual-KI-hSTING WT(R232) reporter cells; type: cell-based, human; details: DNA/lipofectamine complex challenging, ISRE induced luminescence
Text: as §1, §2

[3] = test system: CT26 colon cancer cells; assay: CT26 tumor model, intratumoral cdAMP(ps)2 formulations; type: in vivo, Balb/c mice
Description: When tumor size reach ˜60 mm^3, 2 doses of 25 ug/dose cdAMP(ps)2 were administrated intra-tumorally on days 10 and 15. To evaluate antigen-specific immune responses, PBMCs were collected for tetramer staining on day 17 and ELISPOT analysis with AH1 antigen peptides on day 22. […] Although CDN-Zn seemed to better inhibit tumor growth, compared with CDN and CDNs@CaP/PEI-PEG, there was no statistical difference among them. For the survival of mice after treatment, median survival time for untreated, CDN, CDN-Zn and CDNs@CaP/PEI-PEG group was 23 days, 42 days, 64 days and unreached, respectively (FIG. 4B).
All animals were cared for following federal, state, and local guidelines. All work performed on animals was in accordance with and approved by the University Committee on Use and Care of Animals (UCUCA) at University of Michigan, Ann Arbor. Female Balb/c mice of age 6-8 weeks (Jackson Laboratories) were inoculated with 1×10^5 CT26 colon cancer cells. When tumor size achieved ˜100 mm^3, 2 doses of 25 ug cdAMP(ps)2 in different formulations were administrated via intra-tumoral route on day 10 and day 15. Tumor size and survival were monitored every 2 or 3 days. Tumor size was calculated based on equation: volume=length×width^2×0.5. Animals were euthanized when the tumor reached 1.5 cm in diameter or when animals became moribund with severe weight loss or ulceration. At day 17, the percentages of tumor antigen-specific CD8α+ T cells among PBMC were analyzed using the tetramer staining assay as described previously with peptide-MHC tetramer ([…] AH1) (the NIH Tetramer Core Facility, Atlanta, GA). On day 22, ELISPOT assay was performed with PBMC from the treated mice as described previously.
All animals were cared for following federal, state, and local guidelines. All work performed on animals was in accordance with and approved by the University Committee on Use and Care of Animals (UCUCA) at University of Michigan, Ann Arbor. Female Balb/c mice of age 6-8 weeks (Jackson Laboratories) were inoculated with 1×10^5 CT26 colon cancer cells. When tumor size achieved ˜50 mm^3, indicated drugs or formulations were administrated via the indicated route. Tumor size and survival were monitored every 2 or 3 days. Tumor size was calculated based on equation: volume=length×width^2×0.5. Animals were euthanized when the tumor reached 1.5 cm in diameter or when animals became moribund with severe weight loss or un-healing ulceration. At day 17, the percentages of tumor antigen-specific CD8α+ T cells among PBMC were analyzed using the tetramer staining assay as described previously with peptide-MHC tetramer ([…] AH1) (the NIH Tetramer Core Facility, Atlanta, GA). […]
We also evaluated a subset of the formulations mentioned above in tumor-bearing mice. […]

[4] = 2 doses of 25 ug/dose cdAMP(ps)2 intratumorally on days 10 and 15

Compound | tolerability in in-vitro assay (cellular viability) [1] | IC50 of DNA-induced Type I IFN response [2] | average tumor growth compared with the untreated group [3, 4] | median survival time [3, 4] [days] | AH1 antigen-specific T cell response (ELISPOT) ([3]; day 22, seven days after the 2nd dose) | complete tumor regression ([3]; individual tumor growth curves, 5 mice per group)
O=C(OC[C@H]1O[C@@H](OC(=O)c2cc(O)c(O)c(OC(=O)c3cc(O)c(O)c(O)c3)c2)[C@H](OC(=O)c2cc(O)c(O)c(OC(=O)c3cc(O)c(O)c(O)c3)c2)[C@@H](OC(=O)c2cc(O)c(O)c(OC(=O)c3cc(O)c(O)c(O)c3)c2)[C@@H]1OC(=O)c1cc(O)c(O)c(OC(=O)c2cc(O)c(O)c(O)c2)c1)c1cc(O)c(O)c(OC(=O)c2cc(O)c(O)c(O)c2)c1 [tannin acid, Tannic acid] | well-tolerated | as low as nanomolar level |  |  |  | 
O=C1O[C@H]2[C@@H]3OC(=O)c4cc(O)c(O)c(O)c4-c4c(O)c(O)c5oc(=O)c6c(c(O)c(O)c7oc(=O)c4c5c76)-c4c(cc(O)c(O)c4O)C(=O)OC[C@H]3OC(O)[C@@H]2OC(=O)c2cc(O)c(O)c(O)c2-c2c1cc(O)c(O)c2O (mixture of isomers) [Punicalagin] | well-tolerated | as low as nanomolar level |  |  |  | 
cdAMP(ps)2 [free CDN] |  |  | greatly delayed | 42 | significant AH1 antigen-specific T cell response | 2 out of 5
